Experimental data: patent publication US8506950B2, “Degradable microcapsules” (ETH Zurich, priority 2008, dated 2013)

Assays:
[1] = target: rLHR (Rattus norvegicus, UniProt P16235); assay: bLH-dependent luciferase expression in stable rLHR clone 6 (CK04); assay type: cell-based; set-up: Full-length cDNAs encoding the LHRs of rat (r) and bovine (b) origin; expressed in transfected cells; host or cells: CK04: HEK293T stably cotransfected with pLEN-rLHR and pZeoSV2(+), clone 6; conditions: clone 6, 500 ng/ml bLH, pCRE-Luc
Method: HEK293T cells were cotransfected with pLEN-LHR and pZeoSV2. After clonal expansion several single clones were transiently transfected with pCRE-Luc and screened for the functional expression of rLHR by their ability to respond to bLH. […] (□) no bLH; (▪) 500 ng/ml bLH. Luciferase expression was expressed as relative light units (RLU).
Functional expression of LHRs on the cell surface results in the stimulation of PKA and an increase of intracellular cAMP in response to bLH. It was evaluated whether the activated LHR-signaling may induce a PKA-responsive promoter. […] 24 hours post-transfection the cells were induced by bLH and the SEAP expression was determined over time. […] In comparing rLHR- and bLHR-expressing cells a 3-fold increase in maximal SEAP expression in response to bLH of the rLHR over the bLHR was detected. […]
The intracellular cAMP production of cells was quantified using the cAMP Fluorescence Polarization (FP) Biotrak Immunoassay System (GE Healthcare Bio-Sciences GmbH, Otelfingen, Switzerland, Cat No. RPN3595) according to the manufacturer's protocol. The expression of firefly luciferase was determined with the Tropix Luciferase Assay Kit (Applied Biosystems, Bedford, USA, Cat No. BC100L). […] Enhanced YFP-expression was detected by fluorescence microscopy (Leica Microsystems, Wetzlar, Germany)

[2] = target: T1, bovine luteinizing hormone receptor (bLHR) (Bos taurus, UniProt Q28005); assay: Intracellular cAMP in HEK293T cells transiently expressing bLHR, induced by bLH; assay type: cell-based; conditions: 500 ng/ml bLH, 1 h post-induction, bLHR expressed, vs non-induced cells
T1 construct: Full-length cDNAs encoding the LHRs of rat (r) and bovine (b) origin; expressed in transfected cells; host or cells: HEK293T, transient transfection with pcDNA3.1-bLHR
Method: HEK293T cells were transiently transfected for constitutive bLHR or rLHR expression. 48 hours post-transfection the cells were induced by the addition of 500 ng/ml bLH. The intracellular cAMP-levels were determined 1 h post-induction. […] (□) no bLH, (▪) 500 ng/mL bLH.
Full-length cDNAs encoding the LHRs of rat (r) and bovine (b) origin were cloned under control of the strong constitutive human cytomegalovirus promoter (PCMV) as previously described [Kawate N, Tamada H, Inaba T, Sawada T, Journal of Reproduction and Development 2002; 48:8; Ulaner G A, Chuang J, Lin W, Woodbury D, Myers R V, Moyle W R, J Endocrinol 1999; 163:289-97]. The expression vectors were transiently transfected into HEK293T cells. The functionality of the expressed LHRs was determined 48 hours post-transfection by assaying the intracellular cAMP increase in response to the presence of bLH (FIG. 7). […] However, when the rLHR was expressed the detected cAMP-level increased to 29-fold level of the non-induced cells. […]
The intracellular cAMP production of cells was quantified using the cAMP Fluorescence Polarization (FP) Biotrak Immunoassay System (GE Healthcare Bio-Sciences GmbH, Otelfingen, Switzerland, Cat No. RPN3595) according to the manufacturer's protocol. The expression of firefly luciferase was determined with the Tropix Luciferase Assay Kit (Applied Biosystems, Bedford, USA, Cat No. BC100L). […]

T1 sequence (Q28005 27-701): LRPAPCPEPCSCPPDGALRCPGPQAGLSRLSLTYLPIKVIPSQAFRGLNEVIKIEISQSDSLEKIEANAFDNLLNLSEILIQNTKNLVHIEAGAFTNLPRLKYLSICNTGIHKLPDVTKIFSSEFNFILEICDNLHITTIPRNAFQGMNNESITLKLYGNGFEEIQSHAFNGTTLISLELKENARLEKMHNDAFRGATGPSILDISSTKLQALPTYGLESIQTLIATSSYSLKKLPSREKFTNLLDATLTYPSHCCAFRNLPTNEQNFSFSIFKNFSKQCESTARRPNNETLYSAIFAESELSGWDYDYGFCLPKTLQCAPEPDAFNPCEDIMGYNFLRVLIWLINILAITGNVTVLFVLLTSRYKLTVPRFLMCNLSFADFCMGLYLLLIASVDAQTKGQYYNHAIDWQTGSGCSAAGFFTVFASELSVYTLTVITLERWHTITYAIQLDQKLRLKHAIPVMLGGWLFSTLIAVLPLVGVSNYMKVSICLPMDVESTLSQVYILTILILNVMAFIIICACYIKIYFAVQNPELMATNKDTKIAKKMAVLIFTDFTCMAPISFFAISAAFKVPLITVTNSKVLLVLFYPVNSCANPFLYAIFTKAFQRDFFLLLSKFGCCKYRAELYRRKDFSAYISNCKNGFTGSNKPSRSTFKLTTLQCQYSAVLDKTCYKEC
Chain of rLHR (P16235 27-700): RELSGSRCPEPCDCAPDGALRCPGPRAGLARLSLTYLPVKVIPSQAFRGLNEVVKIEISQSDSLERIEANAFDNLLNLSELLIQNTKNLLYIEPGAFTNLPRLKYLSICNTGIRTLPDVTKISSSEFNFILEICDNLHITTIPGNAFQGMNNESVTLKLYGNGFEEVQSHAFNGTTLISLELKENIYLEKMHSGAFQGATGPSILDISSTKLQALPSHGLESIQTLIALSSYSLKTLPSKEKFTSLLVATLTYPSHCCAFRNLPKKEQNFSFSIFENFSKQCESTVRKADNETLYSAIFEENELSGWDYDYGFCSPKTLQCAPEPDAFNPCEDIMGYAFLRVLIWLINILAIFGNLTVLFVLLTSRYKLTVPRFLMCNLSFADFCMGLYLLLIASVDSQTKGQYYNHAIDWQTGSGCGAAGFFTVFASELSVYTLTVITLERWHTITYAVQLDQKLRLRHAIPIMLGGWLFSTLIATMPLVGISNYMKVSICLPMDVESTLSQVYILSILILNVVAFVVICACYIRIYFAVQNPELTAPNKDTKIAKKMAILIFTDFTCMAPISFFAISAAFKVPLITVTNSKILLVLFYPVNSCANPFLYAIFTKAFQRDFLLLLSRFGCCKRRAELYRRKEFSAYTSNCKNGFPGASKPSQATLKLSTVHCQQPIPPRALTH

bovine luteinizing hormone [bLH]
induction of luciferase expression in response to bLH [1]: 17.0±0.2 fold | increase in intracellular cAMP [2]: 12 fold
